In ChEMBL document CHEMBL4311969, “Polygala tenuifolia-Acori tatarinowii herbal pair as an inspiration for substituted cinnamic α-asaronol esters: Design, synthesis, anticonvulsant activity, and inhibition of lactate dehydrogenase study” (Eur J Med Chem, 2019):
Where “and” joins values, the source holds several entries; their conditions need not be identical. Identical values can stand only once. Calls of active or inactive are those of the source. No cut-off for these calls is given here.

What was measured:
Mus musculus [1] = test: Anticonvulsant activity in Kunming mouse assessed as reduction in ScPTZ-induced clonic seizure at 300 mg/kg, ip administered 0.5 hrs before ScPTZ stimulation relative to control; type: functional; design: scale not given: the % may be the effect or the level left
[2] = Neurotoxicity against ip dosed Kunming mouse assessed as time remained in rod measured at 0.5 hrs by rotarod test; type: toxicity, organism-based; conditions: in vivo
Mus musculus [3] = test: Anticonvulsant activity in Kunming mouse assessed as reduction in ScPTZ-induced clonic seizure at 100 mg/kg, ip administered 0.5 hrs before ScPTZ stimulation relative to control; type: functional; design: scale not given: the % may be the effect or the level left
Mus musculus [4] = test: […] activity in ip dosed Kunming mouse assessed as reduction in formalin-induced paw licking administered 0.5 hrs before formalin stimulation; type: functional
[5] = Noncompetitive inhibition of human LDH5 at 0.5 mM using sodium pyruvate as substrate by UV-VIS spectrophotometry method based Lineweaver-Burk plot analysis
[6] = (§1) Protective index, ratio of TD50 for neurotoxicity against ip dosed Kunming mouse assessed as time remained in rod measured at 0.5 hrs by rotarod test to ED50 for anticonvulsant activity in ip dosed Kunming mouse assessed as reduction in Sc3-MP-induced seizure administered 0.5 hrs before Sc3-MP stimulation; type: toxicity, organism-based; conditions: in vivo, read-out: PI
Mus musculus [7] = test: Anticonvulsant activity in Kunming mouse assessed as reduction in ScPTZ-induced tonic seizure rate at 100 mg/kg, ip administered 0.5 hrs before ScPTZ stimulation relative to control; type: functional; design: scale not given: the % may be the effect or the level left
Mus musculus [8] = test: Anticonvulsant activity in Kunming mouse assessed as MES-induced hind limb extension at 50 mg/kg, ip administered 0.5 and 2 hrs before MES stimulation relative to control; type: functional
[9] = Noncompetitive inhibition of human LDH1 at 0.5 mM using sodium pyruvate as substrate by UV-VIS spectrophotometry method based Lineweaver-Burk plot analysis
Mus musculus [10] = test: Anticonvulsant activity in Kunming mouse assessed as reduction in Sc3-MP-induced tonic seizure rate at 300 mg/kg, ip administered 0.5 hrs before Sc3-MP stimulation relative to control; type: functional; design: scale not given: the % may be the effect or the level left
Homo sapiens [11] = species on record: Homo sapiens; test: Inhibition of human LDH1 at 0.5 mM using sodium pyruvate as substrate by UV-VIS spectrophotometry method relative to control
[12] = Protective index, ratio of TD50 for neurotoxicity against ip dosed Kunming mouse assessed as time remained in rod measured at 0.5 hrs by rotarod test to ED50 for anticonvulsant activity in ip dosed Kunming mouse assessed as MES-induced hind limb extension administered 0.5 hrs; type: toxicity, organism-based; conditions: in vivo, read-out: PI
[13] = as §1, with “ScPTZ-induced” for “Sc3-MP-induced”, “ScPTZ” for “Sc3-MP”; type: toxicity, organism-based; conditions: in vivo, read-out: PI
Mus musculus [14] = test: Anticonvulsant activity in Kunming mouse assessed as reduction in Sc3-MP-induced seizure ip dosed measured at 0.5 hrs before Sc3-MP stimulation; type: functional
Mus musculus [15] = test: Anticonvulsant activity in Kunming mouse assessed as reduction in Sc3-MP-induced mortality rate at 300 mg/kg, ip administered 0.5 hrs before Sc3-MP stimulation relative to control; type: functional; design: scale not given: the % may be the effect or the level left
Mus musculus [16] = test: Anticonvulsant activity in Kunming mouse assessed as MES-induced hind limb extension at 100 mg/kg, ip administered 0. 5 hrs before MES stimulation relative to control; type: functional
[17] = Neurotoxicity against Kunming mouse assessed as time remained in rod at 100 mg/kg, ip administered 0.5 to 2 hrs by rotarod test; type: toxicity, organism-based; conditions: in vivo
Mus musculus [18] = test: Anticonvulsant activity in Kunming mouse assessed as MES-induced hind limb extension at 100 mg/kg, ip administered 0. 5 to 4 hrs before MES stimulation relative to control; type: functional
Mus musculus [19] = test: Anticonvulsant activity in Kunming mouse assessed as MES-induced hind limb extension at 50 mg/kg, ip administered 0.5 to 4 hrs before MES stimulation relative to control; type: functional
Homo sapiens [20] = species on record: Homo sapiens; test: Inhibition of human LDH5 at 0.5 mM using sodium pyruvate as substrate by UV-VIS spectrophotometry method relative to control
Mus musculus [21] = test: Anticonvulsant activity in ip dosed Kunming mouse assessed as MES-induced hind limb extension administered 0.5 hrs before MES stimulation; type: functional
Mus musculus [22] = test: Anticonvulsant activity in Kunming mouse assessed as reduction in Sc3-MP-induced clonic seizure rate at 300 mg/kg, ip administered 0.5 hrs before Sc3-MP stimulation relative to control; type: functional; design: scale not given: the % may be the effect or the level left
Mus musculus [23] = test: Anticonvulsant activity in Kunming mouse assessed as MES-induced hind limb extension at 100 mg/kg, ip administered 0. 5 to 2 hrs before MES stimulation; type: functional, organism-based
Mus musculus [24] = test: Anticonvulsant activity in Kunming mouse assessed as reduction in ScPTZ-induced tonic seizure rate at 300 mg/kg, ip administered 0.5 hrs before ScPTZ stimulation relative to control; type: functional; design: scale not given: the % may be the effect or the level left
Mus musculus [25] = test: Anticonvulsant activity in ip dosed Kunming mouse assessed as reduction in ScPTZ-induced seizure administered 0.5 hrs before ScPTZ stimulation; type: functional
[26] = as §1, with “formalin-induced paw licking” for “Sc3-MP-induced seizure”, “formalin” for “Sc3-MP”; type: toxicity, organism-based; conditions: in vivo, read-out: PI
Mus musculus [27] = test: Anticonvulsant activity in Kunming mouse assessed as reduction in ScPTZ-induced seizure at 100 mg/kg, ip administered 0.25 to 2 hrs before ScPTZ stimulation relative to control; type: functional
Mus musculus [28] = test: Anticonvulsant activity in Kunming mouse assessed as reduction in ScPTZ-induced seizure at 300 mg/kg, ip administered 0.25 to 2 hrs before ScPTZ stimulation relative to control; type: functional; design: scale not given: the % may be the effect or the level left
Mus musculus [29] = test: Anticonvulsant activity in Kunming mouse assessed as reduction in ScPTZ-induced seizure at 100 mg/kg, ip administered 1 hr relative to control; type: functional; design: scale not given: the % may be the effect or the level left
Mus musculus [30] = test: Anticonvulsant activity in Kunming mouse assessed as reduction in ScPTZ-induced seizure at 100 mg/kg, ip administered 0.5 hrs before ScPTZ stimulation relative to control; type: functional; design: scale not given: the % may be the effect or the level left
Mus musculus [31] = test: Anticonvulsant activity in Kunming mouse assessed as reduction in Sc3-MP-induced seizure at 300 mg/kg, ip administered 0.25 and 1 hrs before Sc3-MP stimulation relative to control; type: functional, organism-based
Mus musculus [32] = test: Anticonvulsant activity in Kunming mouse assessed as reduction in ScPTZ-induced seizure at 100 mg/kg, ip administered 0.25 and 1 hrs before ScPTZ stimulation relative to control; type: functional; design: scale not given: the % may be the effect or the level left
Homo sapiens [33] = species on record: Homo sapiens; test: Inhibition of human LDH1 at 0.5 mM using sodium pyruvate as substrate measured for 60 sec for every 5 mins by LC/MS-MS analysis
Mus musculus [34] = test: Anticonvulsant activity in Kunming mouse assessed as reduction in Sc3-MP-induced seizure at 300 mg/kg, ip administered 0.5 hrs before Sc3-MP stimulation relative to control; type: functional; design: scale not given: the % may be the effect or the level left
Mus musculus [35] = test: Anticonvulsant activity in Kunming mouse assessed as MES-induced hind limb extension at 100 mg/kg, ip administered 3 hrs before MES stimulation; type: functional, organism-based
Homo sapiens [36] = species on record: Homo sapiens; test: Inhibition of human LDH5 at 0.5 mM using sodium pyruvate as substrate measured for 60 sec for every 5 mins by LC/MS-MS analysis

Row | Compound | Activity (Mus musculus [1]) | TD50 at 0.5 h [2] | Activity (Mus musculus [3]) | ED50 (Mus musculus [4]) | selectivity ratio at 0.5 h [6] | Activity (Mus musculus [7]) | Activity (Mus musculus [8]) | Activity (Mus musculus [10]) | inhibition (Homo sapiens [11]) | selectivity ratio at 0.5 h [12] | selectivity ratio at 0.5 h [13] | ED50 (Mus musculus [14]) | Activity [17] | Activity (Mus musculus [18]) | Activity (Mus musculus [19]) | inhibition (Homo sapiens [20]) | ED50 (Mus musculus [21]) | Activity (Mus musculus [22]) | Activity (Mus musculus [23]) | Activity (Mus musculus [24]) | other results
1 | COc1cc(OC)c(OC)cc1/C=C/COC(=O)/C=C/c1c(OC)ccc(OC)c1OC | 100% | > 1000 mg/kg and > 2250 µmol/kg | 100% | 180 to 225 µmol/kg | 3.3 | 100% | 50% | 75% | Active | > 18.7 | 4.72 | > 300 mg/kg and > 675 µmol/kg | Non-Toxic | 25 - 100% | 50% | Active | 120 µmol/kg and 53.5 mg/kg | 100% | Active | 50% | Ki [5]: 3.52 µM; Ki [9]: 12 µM; Activity (Mus musculus [15]): 25%; Activity (Mus musculus [16]): 100%; ED50 (Mus musculus [25]): 212 mg/kg and 476 µmol/kg; selectivity ratio at 0.5 h [26]: 12.5; Activity (Mus musculus [27]): inactive; Activity (Mus musculus [28]): 50%
2 | COc1cc(OC)c(OC)cc1/C=C/COC(=O)/C=C/c1ccc(OC)c(OC)c1 | 100% | > 1000 mg/kg and > 2410 µmol/kg | 100% | 93.3 mg/kg and 225 µmol/kg | 3.3 | 100% | 50% | 75% | Active | > 17.2 | > 5.8 | > 300 mg/kg and > 724 µmol/kg | Non-Toxic | 25 - 100% | 50% | Active | 58.1 mg/kg and 140 µmol/kg | 100% | Active | 0% | Activity (Mus musculus [29]): 75%; Activity (Mus musculus [15]): 25%; ED50 (Mus musculus [25]): 173 mg/kg and 418 µmol/kg; selectivity ratio at 0.5 h [26]: > 10.7; Activity (Mus musculus [30]): 100%; Activity (Mus musculus [27]): inactive; Activity (Mus musculus [28]): 50%
3 | COc1cc(OC)c(OC)cc1/C=C/COC(=O)/C=C/c1cc(OC)c(OC)c(OC)c1 | 100% | 2220 µmol/kg and 988 mg/kg | 100% | 85.5 mg/kg and 192 µmol/kg | 3.3 | 100% | 75% | 75% | 10% | 29.8 | 4.9 | > 200 mg/kg and > 450 µmol/kg | Non-Toxic | 25 - 100% | 50% | 13% | 74.7 µmol/kg and 33.2 mg/kg | 100% | Active | 25% | Activity (Mus musculus [31]): Active; Ki [5]: 3.35 µM; Activity (Mus musculus [32]): 75%; Ki [9]: 14.1 µM; Activity (Mus musculus [16]): 100%; inhibition (Homo sapiens [33]): 10%; Activity (Mus musculus [34]): 50%; ED50 (Mus musculus [25]): 204 mg/kg and 458 µmol/kg; selectivity ratio at 0.5 h [26]: 11.6; Activity (Mus musculus [35]): Active; inhibition (Homo sapiens [36]): 13%; Activity (Mus musculus [27]): inactive; Activity (Mus musculus [28]): 50%
